Reference: PubChem BioAssay (NCI)
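The compound was tested at five concentrations on cells cultured in 96-well plates, with a 48-hour exposure period. TGI denotes the concentration required for complete inhibition of growth.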

How the values were obtained:
Assay in all cases: NCI anticancer screen, dose series, 48 h
RPMI-8226 leukemia = system: RPMI-8226 leukemia
SF-295 CNS = system: SF-295 CNS
SF-268 CNS = system: SF-268 CNS
NCI-H23 lung = system: NCI-H23 lung
OVCAR-8 ovarian = system: OVCAR-8 ovarian
NCI/ADR-RES ovarian = system: NCI/ADR-RES ovarian
CCRF-CEM leukemia = system: CCRF-CEM leukemia
HOP-92 NSCLC = system: HOP-92 NSCLC
RXF 393 renal = system: RXF 393 renal
HCT-116 colon = system: HCT-116 colon
SNB-19 CNS = system: SNB-19 CNS
XF 498 CNS = system: XF 498 CNS
K-562 leukemia = system: K-562 leukemia
DLD-1 colon = system: DLD-1 colon
LOX IMVI melanoma = system: LOX IMVI melanoma
SK-OV-3 ovarian = system: SK-OV-3 ovarian
HCT-15 colon = system: HCT-15 colon
MCF7 breast = system: MCF7 breast
HCC-2998 colon = system: HCC-2998 colon
HOP-18 NSCLC = system: HOP-18 NSCLC

Compound	TGI (RPMI-8226 leukemia) [µM]	TGI (SF-295 CNS) [µM]	TGI (SF-268 CNS) [µM]	TGI (NCI-H23 lung) [µM]	TGI (OVCAR-8 ovarian) [µM]	TGI (NCI/ADR-RES ovarian) [µM]	TGI (CCRF-CEM leukemia) [µM]	TGI (HOP-92 NSCLC) [µM]	TGI (RXF 393 renal) [µM]	TGI (HCT-116 colon) [µM]	TGI (SNB-19 CNS) [µM]	TGI (XF 498 CNS) [µM]	TGI (K-562 leukemia) [µM]	TGI (DLD-1 colon) [µM]	TGI (LOX IMVI melanoma) [µM]	TGI (SK-OV-3 ovarian) [µM]	TGI (HCT-15 colon) [µM]	TGI (MCF7 breast) [µM]	TGI (HCC-2998 colon) [µM]	TGI (HOP-18 NSCLC) [µM]
Cc1cc(N=Nc2ccc(N=Nc3c(O)c(S(=O)(=O)O)cc4cc(S(=O)(=O)O)ccc34)cc2C)ccc1N=Nc1ccc2cc(S(=O)(=O)O)cc(S(=O)(=O)O)c2c1	> 100	> 100	> 100	> 100	> 31.6	> 100	> 100	> 100	> 100	> 100	> 100	> 100	> 100	> 100	> 100	> 100	> 100	> 100	> 100	> 100
Cn1c(=O)c2nc(N3CCCCC3)cnc2n(C)c1=O	> 100	> 100	> 100	> 100	> 100	–	> 100	> 100	–	> 100	> 100	> 100	> 100	> 100	–	> 100	> 100	–	> 100	–
CC1=C2C(O)C(C(C)C(=O)NC(C)C)CCC2(C)C=CC1=O (stereo not drawn)	> 100	> 100	> 100	> 100	> 100	> 100	> 100	> 100	> 100	> 100	> 100	> 100	> 100	> 100	> 100	> 100	> 100	> 100	> 100	> 100
COc1cc2c(cc1OC)C(Cc1c3ccccc3cc3ccccc13)N(C)CC2 (stereo not drawn)	34	33.8	> 100	> 85.3	> 90.7	> 74.1	93	35	32.5	40.3	52.4	38.8	39.3	> 100	41.2	84.5	> 87.6	33.7	–	50.4
CCOC(=O)NC(=O)c1cn(CCSCCOC(=O)NCCCCCCNC(=O)OCCSCCn2cc(C(=O)NC(=O)OCC)c(=O)[nH]c2=O)c(=O)[nH]c1=O	–	> 100	–	> 100	> 100	–	> 100	> 100	> 100	> 100	> 100	–	> 100	> 100	> 100	> 100	> 100	–	–	> 100
